Experimental data published in PubChem BioAssay AID280 (DTP/NCI, 2004).
Inconclusive results and toxic doses are left out. Rule for the calls: active = survival T/C of 150% or more; inactive = T/C below 125% in these data.

Tested on: nude mice, LOX melanoma ip, survival T/C
Experiment: NCI In Vivo Anticancer Drug Screen. Data for tumor model Human Amelanotic Melanoma (LOX) (intraperitoneal) in NU/NU BALB/C (nude) mice
Settings: endpoint: median survival time, schedule: Q04DX003 (ip), higher = longer survival
Description: The antitumor activity of compounds was measured in mice bearing transplantable tumors. Survival or tumor size were measured and the results are expressed as the measurement made in the treated group (T) divided by the measurement made in the vehicle treated control group (C). The tumor model used in this assay is Human Amelanotic Melanoma (LOX) (intraperitoneal) in NU/NU BALB/C (nude) mice

[1] = dose: 37.5 mg/kg/injection, vehicle: saline with Tween-80
[2] = dose: 75.0 mg/kg/injection, vehicle: saline with Tween-80
[3] = dose: 150.0 mg/kg/injection, vehicle: saline with Tween-80
[4] = dose: 25.0 mg/kg/injection, vehicle: suspension in saline
[5] = dose: 50.0 mg/kg/injection, vehicle: saline with Tween-80
[6] = dose: 100.0 mg/kg/injection, vehicle: saline with Tween-80
[7] = dose: 200.0 mg/kg/injection, vehicle: saline with Tween-80

Measured: T/C

CC(/C=C/C=C/C=C/C=C/C=C/C(O)=C1/C(=O)C(CCC(=O)O)N(C)C1=O)=C\C(C)C(OC1CC(O)C(O)C(C)O1)C(C)C (stereo unspecified)
inactive: dose: 8.3 mg/kg/injection, vehicle: water 114 % of control | dose: 13.8 mg/kg/injection, vehicle: water 114 % of control | dose: 107.0 mg/kg/injection, vehicle: water 116 % of control
active: dose: 16.0 mg/kg/injection, vehicle: water 150 % of control | dose: 32.0 mg/kg/injection, vehicle: water 168 % of control

CN=NN(C)C(=O)NC
active: dose: 25.0 mg/kg/injection, vehicle: saline 154 % of control | dose: 50.0 mg/kg/injection, vehicle: saline 188 % of control | dose: 100.0 mg/kg/injection, vehicle: saline 230 % of control

O=S(=O)(O)c1cc(N=C=S)ccc1/C=C/c1ccc(N=C=S)cc1S(=O)(=O)O
inactive: dose: 3.75 mg/kg/injection, vehicle: saline 103 % of control | dose: 7.5 mg/kg/injection, vehicle: saline 104 % of control | dose: 15.0 mg/kg/injection, vehicle: saline 90 % of control | dose: 30.0 mg/kg/injection, vehicle: saline 94 % of control

NC(=O)CCC(N)C(=O)O (stereo unspecified)
inactive: dose: 75.0 mg/kg/injection, vehicle: suspension in saline 101 % of control | dose: 150.0 mg/kg/injection, vehicle: suspension in saline 90 % of control | dose: 300.0 mg/kg/injection, vehicle: suspension in saline 95 % of control | dose: 600.0 mg/kg/injection, vehicle: suspension in saline 102 % of control | dose: 1200.0 mg/kg/injection, vehicle: suspension in saline 101 % of control

c1ccc([Te][Te]c2ccccc2)cc1
inactive: [1] 102 % of control | [2] 92 % of control | [3] 112 % of control

N/C(=N/N=C/c1cc(Br)cc(Br)c1O)NO
inactive: [4] 98 % of control | dose: 50.0 mg/kg/injection, vehicle: suspension in saline 96 % of control | dose: 100.0 mg/kg/injection, vehicle: suspension in saline 86 % of control

Nc1ccc2ccc(N)cc2c1
inactive: dose: 25.0 mg/kg/injection, vehicle: saline with Tween-80 102 % of control | [5] 101 % of control | [6] 102 % of control | [7] 91 % of control | dose: 400.0 mg/kg/injection, vehicle: saline with Tween-80 101 % of control

CC(=O)c1cccc(NC2C(N)C(NC(=O)N(C)C)(C(C)O)C(C)(O)C2(O)COC(=O)c2c(C)cccc2O)c1 (stereo unspecified)
active: dose: 12.5 mg/kg/injection, vehicle: suspension in saline 173 % of control

O=NN(CCCl)C(=O)Oc1ccc(OC(=O)N(CCCl)N=O)cc1
inactive: dose: 20.0 mg/kg/injection, vehicle: Klucel (hydroxypropylcellulose) (HPC) 118 % of control | dose: 40.0 mg/kg/injection, vehicle: Klucel (hydroxypropylcellulose) (HPC) 94 % of control

CNC(=S)SC1=NS(=O)(=O)c2ccccc2N1
inactive: dose: 50.0 mg/kg/injection, vehicle: Klucel (hydroxypropylcellulose) (HPC) 100 % of control | dose: 100.0 mg/kg/injection, vehicle: Klucel (hydroxypropylcellulose) (HPC) 104 % of control | dose: 200.0 mg/kg/injection, vehicle: Klucel (hydroxypropylcellulose) (HPC) 104 % of control

Cc1ccc(C(=O)NC2C(=O)NC(C(C)C)C(=O)N3CCCC3C(=O)N(C)CC(=O)N(C)C(C(C)C)C(=O)OC2C)c2c1Oc1c(c(C(=O)NC3C(=O)NC(C(C)C)C(=O)N4CCCC4C(=O)N(C)CC(=O)N(C)C(C(C)C)C(=O)OC3C)c3nc(-c4ccccc4)c(=O)oc3c1C)N2 (stereo unspecified)
active: dose: 0.25 mg/kg/injection, vehicle: saline with Tween-80 159 % of control | dose: 0.5 mg/kg/injection, vehicle: saline with Tween-80 161 % of control | dose: 1.0 mg/kg/injection, vehicle: saline with Tween-80 224 % of control | dose: 2.0 mg/kg/injection, vehicle: saline with Tween-80 295 % of control | dose: 4.0 mg/kg/injection, vehicle: saline with Tween-80 301 % of control

O=C(C/C(=N\C(=S)Nc1cc(C(F)(F)F)ccc1Cl)NO)N1CCCC1
inactive: [5] 115 % of control | [6] 96 % of control | [7] 108 % of control

CNC(=O)c1cccc2c(Nc3ccc(NS(C)(=O)=O)cc3OC)c3cccc(C)c3nc12
inactive: dose: 6.25 mg/kg/injection, vehicle: suspension in saline 121 % of control
active: dose: 15.0 mg/kg/injection, vehicle: suspension in saline 158 % of control | [4] 178 % of control | dose: 41.66 mg/kg/injection, vehicle: suspension in saline 170 % of control | dose: 69.44 mg/kg/injection, vehicle: suspension in saline 161 % of control

Cc1noc2nc(-c3ccccc3)cc(N3CCN(C)CC3)c12
inactive: dose: 25.0 mg/kg/injection, vehicle: other 97 % of control | dose: 54.0 mg/kg/injection, vehicle: other 97 % of control | dose: 100.0 mg/kg/injection, vehicle: other 97 % of control | dose: 200.0 mg/kg/injection, vehicle: other 93 % of control | dose: 400.0 mg/kg/injection, vehicle: other 98 % of control

COc1cc(NS(C)(=O)=O)ccc1Nc1c2ccccc2nc2ccccc12
inactive: dose: 2.5 mg/kg/injection, vehicle: other 117 % of control | dose: 5.0 mg/kg/injection, vehicle: other 122 % of control

Cc1ccccc1N=C(c1ccccc1)C1C(=O)c2ccccc2C1=O
inactive: dose: 75.0 mg/kg/injection, vehicle: DMSO 101 % of control | dose: 75.0 mg/kg/injection, vehicle: other 105 % of control | dose: 150.0 mg/kg/injection, vehicle: DMSO 109 % of control | dose: 150.0 mg/kg/injection, vehicle: other 93 % of control | dose: 300.0 mg/kg/injection, vehicle: DMSO 101 % of control | dose: 300.0 mg/kg/injection, vehicle: other 103 % of control | dose: 600.0 mg/kg/injection, vehicle: DMSO 103 % of control | dose: 600.0 mg/kg/injection, vehicle: other 103 % of control | dose: 1200.0 mg/kg/injection, vehicle: DMSO 99 % of control | dose: 1200.0 mg/kg/injection, vehicle: other 102 % of control

[Cl][Pt][Cl].[NH-]C(CO)C(=O)O (stereo unspecified)
inactive: dose: 9.38 mg/kg/injection, vehicle: water 119 % of control | dose: 18.75 mg/kg/injection, vehicle: water 114 % of control | dose: 37.5 mg/kg/injection, vehicle: water 123 % of control

NCCCC(N)(C(=O)O)C(F)F (stereo unspecified)
inactive: dose: 75.0 mg/kg/injection, vehicle: distilled water + alcohol 112 % of control | dose: 150.0 mg/kg/injection, vehicle: distilled water + alcohol 111 % of control | dose: 300.0 mg/kg/injection, vehicle: distilled water + alcohol 101 % of control | dose: 600.0 mg/kg/injection, vehicle: distilled water + alcohol 97 % of control | dose: 1200.0 mg/kg/injection, vehicle: distilled water + alcohol 106 % of control

CCOC(=O)C1=C(C)O/C(=C/c2cccc(Cl)c2)C1=O
active: [1] 200 % of control | [2] 194 % of control | [3] 152 % of control | dose: 300.0 mg/kg/injection, vehicle: saline with Tween-80 184 % of control
